Results: paper PMC7156458, “Synthetic biology based construction of biological activity-related library of fungal decalin-containing diterpenoid pyrones” (Nature Communications, 2020)

Molecular target: Aβ42 (Homo sapiens, UniProt P05067)
Assay: Th-T (thioflavin-T) assay of Aβ42 aggregation
Format: biochemical
Conditions: for Th-T assay plate reading, mean of three wells (Supplementary Fig. 47): source data, Ab alone and No Ab as controls

Aβ42, sequence (P05067 672-713): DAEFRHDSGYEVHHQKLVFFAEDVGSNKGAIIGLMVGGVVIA

`C=C1CC[C@H]2[C@]3(C)C[C@@H](C=C(C)C)O[C@H]3CC[C@]2(C)[C@@H]1Cc1c(O)c(C)c(C)oc1=O` [Compound 5, subglutinol A] was tested, and the “Th-T fluorescence, mean of three wells” value (Aβ42 aggregation time course, reading M117) was 2.674, the “Th-T fluorescence, mean of three wells” value (Aβ42 aggregation time course, reading M118) was 2.686 and the “Th-T fluorescence, mean of three wells” value (Aβ42 aggregation time course, reading M119) was 2.671. For the same molecule, the “Th-T fluorescence, mean of three wells” value (Aβ42 aggregation time course, reading M120) was 2.6965, the “Th-T fluorescence, mean of three wells” value (Aβ42 aggregation time course, reading M121) was 2.686 and the “Th-T fluorescence, mean of three wells” value (Aβ42 aggregation time course, reading M122) was 2.656. For the same molecule, the “Th-T fluorescence, mean of three wells” value (Aβ42 aggregation time course, reading M123) was 2.683, the “Th-T fluorescence, mean of three wells” value (Aβ42 aggregation time course, reading M124) was 2.652 and the “Th-T fluorescence, mean of three wells” value (Aβ42 aggregation time course, reading M125) was 2.669. The “Th-T fluorescence, mean of three wells” value (Aβ42 aggregation time course, reading M126) was 2.668, the “Th-T fluorescence, mean of three wells” value (Aβ42 aggregation time course, reading M127) was 2.67 and the “Th-T fluorescence, mean of three wells” value (Aβ42 aggregation time course, reading M128) was 2.643. For the same molecule, the “Th-T fluorescence, mean of three wells” value (Aβ42 aggregation time course, reading M129) was 2.642, the “Th-T fluorescence, mean of three wells” value (Aβ42 aggregation time course, reading M130) was 2.649 and the “Th-T fluorescence, mean of three wells” value (Aβ42 aggregation time course, reading M131) was 2.67. The “Th-T fluorescence, mean of three wells” value (Aβ42 aggregation time course, reading M132) was 2.65, the “Th-T fluorescence, mean of three wells” value (Aβ42 aggregation time course, reading M133) was 2.648 and the “Th-T fluorescence, mean of three wells” value (Aβ42 aggregation time course, reading M134) was 2.64. The “Th-T fluorescence, mean of three wells” value (Aβ42 aggregation time course, reading M135) was 2.652, the “Th-T fluorescence, mean of three wells” value (Aβ42 aggregation time course, reading M136) was 2.674 and the “Th-T fluorescence, mean of three wells” value (Supplementary Fig. 47, reading M137) was 2.698. The “Th-T fluorescence, mean of three wells” value (Supplementary Fig. 47, reading M138) was 2.649, the “Th-T fluorescence, mean of three wells” value (Supplementary Fig. 47, reading M139) was 2.636 and the “Th-T fluorescence, mean of three wells” value (Supplementary Fig. 47, reading M140) was 2.665. For the same molecule, the “Th-T fluorescence, mean of three wells” value (Supplementary Fig. 47, reading M141) was 2.631, the “Th-T fluorescence, mean of three wells” value (Supplementary Fig. 47, reading M142) was 2.63 and the “Th-T fluorescence, mean of three wells” value (Supplementary Fig. 47, reading M143) was 2.626. For the same molecule, the “Th-T fluorescence, mean of three wells” value (Supplementary Fig. 47, reading M144) was 2.617, the “Th-T fluorescence, mean of three wells” value (Supplementary Fig. 47, reading M145) was 2.644 and the “Th-T fluorescence, mean of three wells” value (Supplementary Fig. 47 source data, measurement M37 of time course) was 2.596. The “Th-T fluorescence, mean of three wells” value (Supplementary Fig. 47 source data, measurement M38 of time course) was 2.604, the “Th-T fluorescence, mean of three wells” value (Supplementary Fig. 47 source data, measurement M39 of time course) was 2.6132 and the “Th-T fluorescence, mean of three wells” value (Supplementary Fig. 47 source data, measurement M40 of time course) was 2.619. The “Th-T fluorescence, mean of three wells” value (Supplementary Fig. 47 source data, measurement M41 of time course) was 2.62, the “Th-T fluorescence, mean of three wells” value (Supplementary Fig. 47 source data, measurement M42 of time course) was 2.62 and the “Th-T fluorescence, mean of three wells” value (Supplementary Fig. 47 source data, measurement M43 of time course) was 2.6737. The “Th-T fluorescence, mean of three wells” value (Supplementary Fig. 47 source data, measurement M44 of time course) was 2.6589, the “Th-T fluorescence, mean of three wells” value (Supplementary Fig. 47 source data, measurement M45 of time course) was 2.678 and the “Th-T fluorescence, mean of three wells” value (Supplementary Fig. 47 source data, measurement M46 of time course) was 2.668. The “Th-T fluorescence, mean of three wells” value (Supplementary Fig. 47 source data, measurement M47 of time course) was 2.664, the “Th-T fluorescence, mean of three wells” value (Supplementary Fig. 47 source data, measurement M48 of time course) was 2.673 and the “Th-T fluorescence, mean of three wells” value (Supplementary Fig. 47 source data, measurement M49 of time course) was 2.687. The “Th-T fluorescence, mean of three wells” value (Supplementary Fig. 47 source data, measurement M50 of time course) was 2.7097, the “Th-T fluorescence, mean of three wells” value (Supplementary Fig. 47 source data, measurement M51 of time course) was 2.667 and the “Th-T fluorescence, mean of three wells” value (Supplementary Fig. 47 source data, measurement M52 of time course) was 2.696. For the same molecule, the “Th-T fluorescence, mean of three wells” value (Supplementary Fig. 47 source data, measurement M53 of time course) was 2.692, the “Th-T fluorescence, mean of three wells” value (Supplementary Fig. 47 source data, measurement M54 of time course) was 2.717 and the “Th-T fluorescence, mean of three wells” value (Supplementary Fig. 47 source data, measurement M55 of time course) was 2.693. The “Th-T fluorescence, mean of three wells” value (Supplementary Fig. 47 source data, measurement M56 of time course) was 2.698, the “Th-T assay plate reading, mean of three wells (Supplementary Fig. 47)” value (from here on “Th-T assay plate reading, mean”) (measurement M1) was 0.28 and the “Th-T assay plate reading, mean” value (measurement M2) was 0.2885. For the same molecule, the “Th-T assay plate reading, mean” value (measurement M3) was 0.3145, the “Th-T assay plate reading, mean” value (measurement M4) was 0.3563 and the “Th-T assay plate reading, mean” value (measurement M5) was 0.4309. The “Th-T assay plate reading, mean” value (measurement M6) was 0.5173, the “Th-T assay plate reading, mean” value (measurement M7) was 0.5869 and the “Th-T assay plate reading, mean” value (measurement M8) was 0.6432. For the same molecule, the “Th-T assay plate reading, mean” value (measurement M9) was 0.6839, the “Th-T assay plate reading, mean” value (measurement M10) was 0.7213 and the “Th-T assay plate reading, mean” value (measurement M11) was 0.7671. For the same molecule, the “Th-T assay plate reading, mean” value (measurement M12) was 0.8255, the “Th-T assay plate reading, mean” value (measurement M13) was 0.9138 and the “Th-T assay plate reading, mean” value (measurement M14) was 1.049. The “Th-T assay plate reading, mean” value (measurement M15) was 1.273, the “Th-T assay plate reading, mean” value (measurement M16) was 1.57 and the “Th-T fluorescence, mean of three wells” value (reading M17, Supplementary Fig. 47 source data) was 1.838. For the same molecule, the “Th-T fluorescence, mean of three wells” value (reading M18, Supplementary Fig. 47 source data) was 2.054, the “Th-T fluorescence, mean of three wells” value (reading M19, Supplementary Fig. 47 source data) was 2.206 and the “Th-T fluorescence, mean of three wells” value (reading M20, Supplementary Fig. 47 source data) was 2.312. For the same molecule, the “Th-T fluorescence, mean of three wells” value (reading M21, Supplementary Fig. 47 source data) was 2.3414, the “Th-T fluorescence, mean of three wells” value (reading M22, Supplementary Fig. 47 source data) was 2.381 and the “Th-T fluorescence, mean of three wells” value (reading M23, Supplementary Fig. 47 source data) was 2.384. The “Th-T fluorescence, mean of three wells” value (reading M24, Supplementary Fig. 47 source data) was 2.421, the “Th-T fluorescence, mean of three wells” value (reading M25, Supplementary Fig. 47 source data) was 2.421 and the “Th-T fluorescence, mean of three wells” value (reading M26, Supplementary Fig. 47 source data) was 2.4278. The “Th-T fluorescence, mean of three wells” value (reading M27, Supplementary Fig. 47 source data) was 2.452, the “Th-T fluorescence, mean of three wells” value (reading M28, Supplementary Fig. 47 source data) was 2.461 and the “Th-T fluorescence, mean of three wells” value (reading M29, Supplementary Fig. 47 source data) was 2.478. The “Th-T fluorescence, mean of three wells” value (reading M30, Supplementary Fig. 47 source data) was 2.514, the “Th-T fluorescence, mean of three wells” value (reading M31, Supplementary Fig. 47 source data) was 2.5151 and the “Th-T fluorescence, mean of three wells” value (reading M32, Supplementary Fig. 47 source data) was 2.555. For the same molecule, the “Th-T fluorescence, mean of three wells” value (reading M33, Supplementary Fig. 47 source data) was 2.5475, the “Th-T fluorescence, mean of three wells” value (reading M34, Supplementary Fig. 47 source data) was 2.566 and the “Th-T fluorescence, mean of three wells” value (reading M35, Supplementary Fig. 47 source data) was 2.566. For the same molecule, the “Th-T fluorescence, mean of three wells” value (reading M36, Supplementary Fig. 47 source data) was 2.598, the “Th-T fluorescence, mean of three wells” value (time course, reading M57) was 2.692 and the “Th-T fluorescence, mean of three wells” value (time course, reading M58) was 2.694. The “Th-T fluorescence, mean of three wells” value (time course, reading M59) was 2.7314, the “Th-T fluorescence, mean of three wells” value (time course, reading M60) was 2.723 and the “Th-T fluorescence, mean of three wells” value (time course, reading M61) was 2.703. For the same molecule, the “Th-T fluorescence, mean of three wells” value (time course, reading M62) was 2.708, the “Th-T fluorescence, mean of three wells” value (time course, reading M63) was 2.7 and the “Th-T fluorescence, mean of three wells” value (time course, reading M64) was 2.715. For the same molecule, the “Th-T fluorescence, mean of three wells” value (time course, reading M65) was 2.696, the “Th-T fluorescence, mean of three wells” value (time course, reading M66) was 2.7072 and the “Th-T fluorescence, mean of three wells” value (time course, reading M67) was 2.703. The “Th-T fluorescence, mean of three wells” value (time-course reading M97, Supplementary Fig. 47 source data) was 2.693, the “Th-T fluorescence, mean of three wells” value (time-course reading M98, Supplementary Fig. 47 source data) was 2.706 and the “Th-T fluorescence, mean of three wells” value (time-course reading M99, Supplementary Fig. 47 source data) was 2.707. The “Th-T fluorescence, mean of three wells” value (time-course reading M100, Supplementary Fig. 47 source data) was 2.682, the “Th-T fluorescence, mean of three wells” value (time-course reading M101, Supplementary Fig. 47 source data) was 2.67 and the “Th-T fluorescence, mean of three wells” value (time-course reading M102, Supplementary Fig. 47 source data) was 2.671. The “Th-T fluorescence, mean of three wells” value (time-course reading M103, Supplementary Fig. 47 source data) was 2.705, the “Th-T fluorescence, mean of three wells” value (time-course reading M104, Supplementary Fig. 47 source data) was 2.674 and the “Th-T fluorescence, mean of three wells” value (time-course reading M105, Supplementary Fig. 47 source data) was 2.704. For the same molecule, the “Th-T fluorescence, mean of three wells” value (time-course reading M106, Supplementary Fig. 47 source data) was 2.676, the “Th-T fluorescence, mean of three wells” value (time-course reading M107, Supplementary Fig. 47 source data) was 2.6621 and the “Th-T fluorescence, mean of three wells” value (time-course reading M108, Supplementary Fig. 47 source data) was 2.675. The “Th-T fluorescence, mean of three wells” value (time-course reading M109, Supplementary Fig. 47 source data) was 2.6837, the “Th-T fluorescence, mean of three wells” value (time-course reading M110, Supplementary Fig. 47 source data) was 2.682 and the “Th-T fluorescence, mean of three wells” value (time-course reading M111, Supplementary Fig. 47 source data) was 2.679. The “Th-T fluorescence, mean of three wells” value (time-course reading M112, Supplementary Fig. 47 source data) was 2.691, the “Th-T fluorescence, mean of three wells” value (time-course reading M113, Supplementary Fig. 47 source data) was 2.675 and the “Th-T fluorescence, mean of three wells” value (time-course reading M114, Supplementary Fig. 47 source data) was 2.674. For the same molecule, the “Th-T fluorescence, mean of three wells” value (time-course reading M115, Supplementary Fig. 47 source data) was 2.688 and the “Th-T fluorescence, mean of three wells” value (time-course reading M116, Supplementary Fig. 47 source data) was 2.67.
